Here are results for 8 molecules from US20110312984A1, “STAT3 INHIBITORS” (priority 2008, published 2011).

pIC50: −log10 of the molar value. “Also recorded” adds a separate entry of the source. Where two headings read alike, the source gives them in different places.

In assay [1] the target is T1, Stat3 (Homo sapiens, UniProt P40763).
T1 construct: endogenous in cells; host or cells: HepG2
The assay can be described thus: Immunoblot assay: IL-6-mediated phosphorylation of Stat3 in HepG2 cells. In kind it is cell-based. As to the method: Immunoblot assay. The human hepatocellular carcinoma cell line (HepG2) was grown in 6-well plates under standard conditions. […] Prestained molecular weight markers (Biorad, Hercules, Calif.) were included in each gel. […] Membranes were stripped between antibody probing using Restore™ Western Blot Stripping Buffer (Thermo Fisher Scientific Inc., Waltham, Mass.) per the manufacturer's instructions. Horseradish peroxidase-conjugated goat-anti-mouse IgG was used as the secondary antibody (Invitrogen Carlsbad, Calif.) and the membranes were developed with enhanced chemiluminescence (ECL) detection system (Amersham Life Sciences Inc.; Arlington Heights, Ill.).
Ligand-mediated pStat3 and pStat1 inhibition assays. […] Membranes are probed serially with antibody against Stat1 pY701 or Stat3 pY705 followed by antibody against Stat 1 or Stat3 (Transduction labs, Lexington, Ky.) then antibody against β-actin (Abcam, Cambridge, Mass.). Membranes are stripped between antibody probings using Restore™ Western Blot Stripping Buffer (Thermo Fisher Scientific Inc., Waltham, Mass.) per the manufacturer's instructions. Horseradish peroxidase-conjugated goat-anti-mouse IgG is used as the secondary antibody (Invitrogen Carlsbad, Calif.) and the membranes are developed with enhanced chemiluminescence (ECL) detection system (Amersham Life Sciences Inc.; Arlington Heights, Ill.). Band intensities are quantified by densitometry. The value of each pStat3 band is divided by its corresponding total Stat3 band intensity; the results are normalized to the DMSO-treated control value. This value was plotted as a function of the log compound concentration. The best-fitting curve is determined using 4-Parameter Logistic Model/Dose Response/XLfit 4.2, IDBS software and was used to calculate the IC50 value.

For assay [2], the target named is T2, Stat3:hSIE complexes (Homo sapiens, UniProt P40763).
T2 construct: endogenous in cells; host or cells: HepG2
The assay can be described thus: Electrophoretic mobility shift assay (EMSA) with hSIE probe, extracts of IL-6-stimulated HepG2 cells. The format is biochemical. The note with it: 300 μM, 60 minutes at 37° C. As to the method: Electrophoretic Mobility Shift Assay (EMSA): EMSA was performed using the hSIE radiolabeled duplex oligonucleotide as a probe as described (Tweardy et al., 1995). Briefly, high salt extracts were prepared from HepG2 cells incubated without or with IL-6 (30 ng/ml) for 30 minutes. Protein concentration was determined by Bradford Assay and 20 ug of extract was incubated with compound (300 uM) for 60 minutes at 37° C. […] Gels were dried and autoradiographed.
For orientation: In EMSA bound probe runs differently from free probe, usually more slowly.

In assay [3] the target is T3, Stat1 (Homo sapiens, UniProt P42224).
T3 construct: endogenous in cells; host or cells: HepG2
T3 sequence (P42224 1-750): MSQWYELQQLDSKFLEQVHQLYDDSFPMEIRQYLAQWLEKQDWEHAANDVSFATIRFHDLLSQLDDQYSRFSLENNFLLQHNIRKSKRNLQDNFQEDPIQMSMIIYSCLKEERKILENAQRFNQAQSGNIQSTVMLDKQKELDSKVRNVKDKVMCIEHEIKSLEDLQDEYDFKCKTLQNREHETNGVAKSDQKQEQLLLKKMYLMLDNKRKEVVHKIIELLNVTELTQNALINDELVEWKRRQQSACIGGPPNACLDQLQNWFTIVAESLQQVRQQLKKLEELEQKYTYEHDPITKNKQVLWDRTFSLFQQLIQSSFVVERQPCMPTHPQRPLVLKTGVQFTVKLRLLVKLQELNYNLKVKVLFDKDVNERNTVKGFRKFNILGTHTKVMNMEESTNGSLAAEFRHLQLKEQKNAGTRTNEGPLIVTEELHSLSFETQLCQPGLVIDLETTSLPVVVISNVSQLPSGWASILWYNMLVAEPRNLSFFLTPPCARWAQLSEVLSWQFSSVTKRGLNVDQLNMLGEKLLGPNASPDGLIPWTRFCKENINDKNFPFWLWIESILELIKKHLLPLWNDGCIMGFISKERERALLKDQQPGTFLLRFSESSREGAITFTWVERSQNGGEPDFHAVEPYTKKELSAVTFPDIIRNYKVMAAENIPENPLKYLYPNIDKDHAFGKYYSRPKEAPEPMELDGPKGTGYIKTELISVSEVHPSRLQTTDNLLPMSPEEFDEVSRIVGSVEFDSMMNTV
The assay can be described thus: Immunoblot assay: IFN-γ-mediated phosphorylation of Stat1 in HepG2 cells. The format is cell-based. The note with it: 300 μM, 1 hour at 37° C. before IFN-γ stimulation. As to the method:
Immunoblot assay. The human hepatocellular carcinoma cell line (HepG2) was grown in 6-well plates under standard conditions. Cells were pretreated with compounds (0, 1, 3, 10, 30, 100 and 300 uM) for 1 hour then stimulated under optimal conditions with either interferon gamma (IFN-γ; 30 ng/ml for 30 min) to activate Stat1 or interleukin-6 (IL-6; 30 ng/ml for 30 min) to activate Stat3 (30-31). Cultures were then harvested and proteins extracted using high-salt buffer, as described (Shao et al., 2006). Briefly, extracts were mixed with 2× sodium dodecyl sulfate (SDS) sample buffer (125 mmol/L Tris-HCL pH 6.8; 4% SDS; 20% glycerol; 10% 2-mercaptoethanol) at a 1:1 ratio and heated for 5 minutes at 100° C. Proteins (20 μg) were separated by 7.5% SDS-PAGE and transferred to polyvinylidene fluoride (PVDF) membrane (Millipore, Waltham, Mass.) and immunoblotted. Prestained molecular weight markers (Biorad, Hercules, Calif.) were included in each gel. Membranes were probed serially with antibody against Stat1 pY^701 or Stat3 pY^705 followed by antibody against Stat1 or Stat3 (Transduction labs, Lexington, Ky.) then antibody against β-actin (Abcam, Cambridge, Mass.). Membranes were stripped between antibody probing using Restore™ Western Blot Stripping Buffer (Thermo Fisher Scientific Inc., Waltham, Mass.) per the manufacturer's instructions. Horseradish peroxidase-conjugated goat-anti-mouse IgG was used as the secondary antibody (Invitrogen Carlsbad, Calif.) and the membranes were developed with enhanced chemiluminescence (ECL) detection system (Amersham Life Sciences Inc.; Arlington Heights, Ill.).
EXP IIC. Ligand-mediated pStat3 and pStat1 inhibition assays. […] Briefly, human hepatocellular carcinoma cells (HepG2) are grown in 6-well plates and pretreated with compounds (0, 0.1, 0.3, 1, 3, 10, 30, 100 μM) for 1 hour then stimulated under optimal conditions with either interleukin-6 (IL-6; 30 ng/ml for 30 min) to activate Stat3 or interferon gamma (IFN-γ; 30 ng/ml for 30 min) to activate Stat1. Cells are harvested and proteins extracted using high-salt buffer, mixed with 2× sodium dodecyl sulfate (SDS) sample buffer (125 mmol/L Tris-HCL pH 6.8; 4% SDS; 20% glycerol; 10% 2-mercaptoethanol) at a 1:1 ratio then heated for 5 minutes at 100° C. Proteins (20 μg) are separated by 7.5% SDS-PAGE and transferred to polyvinylidene fluoride (PVDF) membrane (Millipore, Waltham, Mass.) and immunoblotted. Membranes are probed serially with antibody against Stat1 pY701 or Stat3 pY705 followed by antibody against Stat 1 or Stat3 (Transduction labs, Lexington, Ky.) then antibody against β-actin (Abcam, Cambridge, Mass.). Membranes are stripped between antibody probings using Restore™ Western Blot Stripping Buffer (Thermo Fisher Scientific Inc., Waltham, Mass.) per the manufacturer's instructions. Horseradish peroxidase-conjugated goat-anti-mouse IgG is used as the secondary antibody (Invitrogen Carlsbad, Calif.) and the membranes are developed with enhanced chemiluminescence (ECL) detection system (Amersham Life Sciences Inc.; Arlington Heights, Ill.). Band intensities are quantified by densitometry. The value of each pStat3 band is divided by its corresponding total Stat3 band intensity; the results are normalized to the DMSO-treated control value. This value was plotted as a function of the log compound concentration. The best-fitting curve is determined using 4-Parameter Logistic Model/Dose Response/XLfit 4.2, IDBS software and was used to calculate the IC50 value.
On the technique in general: A western blot detects proteins with antibodies after separation by electrophoresis.

The target of assay [4] is T4, GFP-Stat3α (Homo sapiens, UniProt P40763).
T4 construct: expressed in transfected cells; host or cells: murine embryonic fibroblasts (MEF) deficient in endogenous Stat3
The assay can be described thus: High-throughput fluorescence microscopy (HTFM), cytoplasm-to-nucleus translocation inhibition in MEF/GFP-Stat3α cells. In kind it is cell-based, murine.
Method: Confocal and highthroughput fluorescence microscopy (HTFM) of MEF/GFP-Stat3α cells were performed as described (Huang et al., 2007). […] For HTFM, cells were seeded into 96-well CC3 plates at a density of 5,000 cells/well using an automated plating system. Cells were cultured under standard conditions until 85-90% confluent. Cells were pretreated with compound for 1 hour at 37° C. then stimulated with IL-6 (200 ng/ml) and IL-6sR (250 ng/ml) for 30 minutes. Cells fixed with 4% formaldehyde in PEM Buffer (80 mM Potassium PIPES, pH 6.8, 5 mM EGTA pH 7.0, 2 mM MgCl2) for 30 minutes at 4° C., quenched in 1 mg/ml of NaBH4 (Sigma) in PEM buffer and counterstained for 1 min in 4,6-diamidino-2-phenylindole (DAPI; Sigma; 1 mg/ml) in PEM buffer. […] Plates were analyzed by automated HTFM using the Cell Lab IC Image Cytometer (IC100) platform and CytoshopVersion 2.1 analysis software (Beckman Coulter). Nuclear translocation is quantified by using the fraction localized in the nucleus (FLIN) measurement (Sharp et al., 2006).
High throughput fluorescence microscopy (HTFM), cytoplasm-to-nucleus translocation inhibition assays. […] Briefly, cells are seeded into 96-well CC3 plates at a density of 5,000 cells/well and cultured under standard conditions until 85-90% confluent. Cells are pre-treated with compound for 1 hour at 37° C. then stimulated with IL-6 (100 ng/ml) and IL-6sR (150 ng/ml) for 30 minutes. Cells are fixed with 4% formaldehyde in PEM Buffer (80 mM Potassium PIPES, pH 6.8, 5 mM EGTA pH 7.0, 2 mM MgCl2) for 30 minutes at 4° C., quenched in 1 mg/ml of NaBH4 (Sigma) in PEM buffer and counterstained for 1 min in 4,6-diamidino-2-phenylindole (DAPI; Sigma; 1 mg/ml) in PEM buffer. Plates are analyzed by automated HTFM using the Cell Lab IC Image Cytometer (IC100) platform and CytoshopVersion 2.1 analysis software (Beckman Coulter).
Nuclear translocation is quantified by using the fraction localized in the nucleus (FLIN) measurement. […] The best-fitting curve and IC50 value are determined using 4-Parameter LogisticModel/Dose Response/XLfit 4.2, IDBS software.

Assay [5] concerns breast cancer cells with constitutively activated Stat3. The note with it: cited from earlier work.
For assay [6], the system named is human leukemic cell line. The assay can be described thus: Leukemic cell line (AML) apoptosis assay. The format is cell-based.
Assay [7] relates to MDA-MB-231. The note with it: 5 mg/kg every 2-3 days; cited from earlier work.
Setting [8] is: HepG2, compound 1 hour, IL-6 30 ng/ml 30 min, read-out: pStat3 IC50 (IL-6-mediated phosphorylation of Stat3).
Setting [9] is: MEF/GFP-Stat3α, IL-6 200 ng/ml and IL-6sR 250 ng/ml 30 min, read-out: HTM IC50 (ligand-mediated nuclear translocation of GFP-Stat3α).

T4 sequence (P40763 whole entry): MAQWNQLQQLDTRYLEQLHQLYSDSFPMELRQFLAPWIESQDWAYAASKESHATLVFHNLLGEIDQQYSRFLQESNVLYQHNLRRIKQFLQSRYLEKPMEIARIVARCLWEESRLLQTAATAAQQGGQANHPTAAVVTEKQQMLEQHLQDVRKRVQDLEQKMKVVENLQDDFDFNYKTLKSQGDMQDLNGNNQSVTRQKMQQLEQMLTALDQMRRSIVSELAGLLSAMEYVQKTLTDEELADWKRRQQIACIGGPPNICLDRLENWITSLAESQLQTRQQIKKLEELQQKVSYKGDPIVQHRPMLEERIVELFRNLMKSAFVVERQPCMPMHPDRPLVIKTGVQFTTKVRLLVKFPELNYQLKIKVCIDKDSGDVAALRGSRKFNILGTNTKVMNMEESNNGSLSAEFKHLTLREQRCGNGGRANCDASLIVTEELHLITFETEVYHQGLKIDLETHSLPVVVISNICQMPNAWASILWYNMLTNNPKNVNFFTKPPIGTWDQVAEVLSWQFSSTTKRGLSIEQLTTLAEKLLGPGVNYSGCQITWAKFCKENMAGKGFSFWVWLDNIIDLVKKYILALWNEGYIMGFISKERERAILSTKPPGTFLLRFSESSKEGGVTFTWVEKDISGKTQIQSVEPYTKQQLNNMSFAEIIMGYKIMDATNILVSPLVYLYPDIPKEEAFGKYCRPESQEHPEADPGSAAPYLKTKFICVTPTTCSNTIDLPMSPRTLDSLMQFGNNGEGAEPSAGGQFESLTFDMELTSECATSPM
T1 sequence (P40763 2-770 limits assumed): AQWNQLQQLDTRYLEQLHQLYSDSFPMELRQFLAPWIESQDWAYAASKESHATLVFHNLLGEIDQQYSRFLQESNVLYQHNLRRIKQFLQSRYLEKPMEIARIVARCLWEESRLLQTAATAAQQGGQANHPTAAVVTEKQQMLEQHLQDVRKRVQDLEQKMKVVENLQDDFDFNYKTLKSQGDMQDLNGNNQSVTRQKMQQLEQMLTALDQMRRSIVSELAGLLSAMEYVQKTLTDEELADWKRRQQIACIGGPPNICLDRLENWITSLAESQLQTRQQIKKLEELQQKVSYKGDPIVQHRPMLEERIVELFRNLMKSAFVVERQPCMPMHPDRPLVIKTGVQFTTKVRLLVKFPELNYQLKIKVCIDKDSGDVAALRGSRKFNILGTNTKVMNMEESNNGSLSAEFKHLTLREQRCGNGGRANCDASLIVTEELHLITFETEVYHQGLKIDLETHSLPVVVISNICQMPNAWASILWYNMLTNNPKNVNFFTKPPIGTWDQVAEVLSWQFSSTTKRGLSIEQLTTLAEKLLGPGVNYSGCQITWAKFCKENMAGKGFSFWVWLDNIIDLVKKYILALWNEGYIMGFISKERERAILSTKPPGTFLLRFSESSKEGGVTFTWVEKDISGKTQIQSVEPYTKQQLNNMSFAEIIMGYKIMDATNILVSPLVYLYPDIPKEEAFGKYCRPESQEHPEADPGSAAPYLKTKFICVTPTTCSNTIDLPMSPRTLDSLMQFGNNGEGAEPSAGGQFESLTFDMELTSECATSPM
T2 sequence (P40763 2-770 limits assumed, one chain of several): as the sequence (P40763 2-770 limits assumed) above

The pIC50 is the IC50 on a negative log10 scale, so that one unit is a factor of ten. On to `O=C(O)c1ccc(C=CC(=O)c2ccc3c(c2)OCCO3)cc1` [Cpd3, 4-[3-(2,3-dihydro-1,4-benzodioxin-6-yl)-3-oxo-1-propen-1-yl]benzoic acid], for which the pIC50 in assay [1] (setting [8]) was 4.04; in assay [4] (setting [9]) it was 3.88. For the same molecule, the “amount of hSIE shifted (Stat3:hSIE band intensity)” value in assay [2] is on record as “reduced the amount of hSIE shifted by half or greater”. In addition, in assay [3], the Stat1 phosphorylation blocked entry is listed as “did not”.

For `O=[N+]([O-])c1ccc2c(c1)S(=O)(=O)C=C2` [Stattic], the “active concentration range (binding, phosphorylation, translocation, DNA binding, apoptosis)” value in assay [5] is 5 to 20 µM.

Take `CCN1C(=O)C(=Cc2ccc(-c3ccc(C(=O)O)cc3)o2)SC1=S` [Cpd30, 4-{5-[(3-ethyl-4-oxo-2-thioxo-1,3-thiazolidin-5-ylidene)methyl]-2-furyl}benzoic acid]: in assay [3], the Stat1 phosphorylation blocked result was “did not”.

With `COC(=O)Cc1c(C)c2ccc(OCc3ccc(C(=O)OC)cc3)c(C)c2oc1=O` [Cpd3-7, methyl 4-({[3-(2-methyoxy-2-oxoethyl)-4,8-dimethyl-2-oxo-2H-chromen-7-yl]oxy}methyl)benzoate], the Stat1 phosphorylation blocked entry in assay [3] is “did not”.

On to `CCOc1cc(C=C2C(=O)c3ccccc3C2=O)cc(Cl)c1OCc1cccc(C(=O)O)c1` [Cpd3-2, 3-({2-chloro-4-[(1,3-dioxo-1,3-dihydro-2H-inden-2-ylidene)methyl]-6-ethoxyphenoxy}methyl)benzoic acid], for which the pIC50 is 3.84 in assay [1] (setting [8]) and 3.82 in assay [4] (setting [9]). In addition, the Stat1 phosphorylation blocked result in assay [3] is on record as “did not”.

For `COc1ccc(S(=O)(=O)Nc2cc(-c3c(O)ccc4ccccc34)c(O)c3ccccc23)cc1` [Cpd188-9], the “leukemic cell line apoptosis activity compared with parent Cpd188” value in assay [6] is reported as “one log better; also recorded: a log greater activity”.

On to `Cc1ccc(S(=O)(=O)OCC(=O)Nc2ccc(C(=O)O)c(O)c2)cc1` [S3I-201], for which, in assay [7], the “growth of nude mice xenografts” value was “inhibited growth”.

For the molecule `CCN1C(=O)C(=Cc2ccc(-c3cc(C(=O)O)ccc3Cl)o2)C(=O)N(CC)C1=S` [Cpd30-12, 4-chloro-3-{5-[(1,3-diethyl-4,6-dioxo-2-thioxotetrahydro-5(2H)-pyrimidinylidene)methyl]-2-furyl}benzoic acid], the values for the pIC50 in assay [1] and in assay [4] were 4.22 and less than 3.52, respectively. Besides, the Stat1 phosphorylation blocked entry in assay [3] is “blocked”.
